# From US20250179017A1 (GUANGDONG NEWOPP BIOPHARMACEUTICALS CO., LTD., priority 2022, published 2025)
# Target: T1, human EP2 (PTGER2) (Homo sapiens, UniProt P43116)
# T1 construct: Cayman Chemical (Human EP2 Reporter Assay Kit)
# Assay: EP2 antagonist assay (HEK-293 CNG membrane potential cAMP assay / 293T SEAP reporter assay, PGE2-stimulated)
# Assay type: cell-based
# Details: EP2 antagonist activity; concentration for 50% inhibition of signal compared to DMSO
# In short: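 Two formats. In a CRE-SEAP reporter assay, reverse-transfected 293T cells received compound with PGE2 (13 nM final) for 6-8 h, then luminescence was read. In the ACTOne CNG format, HEK-293 cells were preincubated with compound for 15 min at RT, stimulated with 5 nM PGE2 for 30 min, and read by membrane-potential dye fluorescence. IC50 was taken versus DMSO.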
# T1 sequence (P43116 whole entry): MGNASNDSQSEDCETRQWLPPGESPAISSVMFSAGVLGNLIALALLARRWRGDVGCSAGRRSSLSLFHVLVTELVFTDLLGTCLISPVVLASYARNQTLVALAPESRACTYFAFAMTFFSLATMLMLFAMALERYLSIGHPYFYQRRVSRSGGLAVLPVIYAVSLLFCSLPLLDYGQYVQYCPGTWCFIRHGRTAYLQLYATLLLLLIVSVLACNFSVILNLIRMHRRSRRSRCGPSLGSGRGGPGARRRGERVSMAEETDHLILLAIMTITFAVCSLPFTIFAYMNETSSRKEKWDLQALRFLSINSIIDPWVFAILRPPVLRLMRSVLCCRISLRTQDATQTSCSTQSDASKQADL
row,Structure (SMILES),IC50
1,"O=C(O)c1ccc(CNC(=O)c2cc(-c3ccc(F)cc3)cc3ccn(Cc4ccc(-c5ccc(F)cc5)cc4)c23)cc1 [Example 209, 4-((1-((4′-fluoro-[1,1′-biphenyl]-4-yl)methyl)-5-(4-fluorophenyl)-1H-indole-7-carboxamido)methyl)benzoic acid]",< 100 nM
2,"O=C(O)c1ccc(C2(NC(=O)c3ccc(-c4ccc(F)c(F)c4)c4ccn(Cc5ccc(C(F)(F)F)cc5)c34)CC2)cc1 [Example 38, 4-(1-(4-(3,4-difluorophenyl)-1-(4-(trifluoromethyl)benzyl)-1H-indole-7-carboxamido)cyclopropyl)benzoic acid]",≥ 1000 nM
3,"O=C(O)c1ccc(CNC(=O)c2cc(-c3cc(F)cc(Cl)c3)cc3ccn(Cc4ccc(C(F)(F)F)cc4)c23)cc1 [Example 95, 4-((5-(3-chloro-5-fluorophenyl)-1-(4-(trifluoromethyl)benzyl)-1H-indole-7-carboxamido)methyl)benzoic acid]",< 100 nM
4,"O=C(O)c1ccc(CNC(=O)c2cc(-c3ccc(Cl)c(F)c3)cc3ccn(Cc4ccc(C(F)(F)F)cc4)c23)cc1 [Example 91, 4-((5-(4-chloro-3-fluorophenyl)-1-(4-(trifluoromethyl)benzyl)-1H-indole-7-carboxamido)methyl)benzoic]",< 100 nM
5,"C[C@@H](NC(=O)c1ccc(-c2ccccc2)c2ccn(Cc3ccc(C(F)(F)F)cc3)c12)c1ccc(C(=O)O)cc1 [Example 29, (R)-4-(1-(4-phenyl-1-(4-(trifluoromethyl)benzyl)-1H-indole-7-carboxamido)ethyl) benzoic acid]",≥ 1000 nM
6,"C[C@@H](NC(=O)c1ccc(-c2cc(F)cc(C(F)(F)F)c2)c2ccn(Cc3ccc(C(F)(F)F)cc3)c12)c1ccc(C(=O)O)cc1 [Example 34, (R)-4-(1-(4-(3-fluoro-5-(trifluoromethyl)phenyl)-1-(4-(trifluoromethyl)benzyl)-1H-indole-7-carboxamido)ethyl)benzoic acid]",≥ 1000 nM
7,"O=C(O)c1ccc(C2(NC(=O)c3ccc(-c4cc(F)cc(C(F)(F)F)c4)c4ccn(Cc5ccc(C(F)(F)F)cc5)c34)CC2)cc1 [Example 41, 4-(1-(4-(3-fluoro-5-(trifluoromethyl)phenyl)-1-(4-(trifluoromethyl)benzyl)-1H-indole-7-carboxamido)cyclopropyl)benzoic acid]",≥ 1000 nM
8,"C[C@H](NC(=O)c1cc(-c2ccc(F)cc2)cc2ccn(Cc3ccc4ccccc4c3)c12)c1ccc(C(=O)O)cc1 [Example 163, (S)-4-(1-(5-(4-fluorophenyl)-1-(naphthalen-2-ylmethyl)-1H-indole-7-carboxamido)ethyl)benzoic acid]",< 100 nM
9,"C[C@@H](NC(=O)c1ccc(-c2ccc(F)c(F)c2)c2ccn(Cc3ccc(C(F)(F)F)cc3)c12)c1ccc(C(=O)O)cc1 [Example 31, (R)-4-(1-(4-(3,4-difluorophenyl)-1-(4-(trifluoromethyl)benzyl)-1H-indole-7-carboxamido)ethyl)benzoic acid]",≥ 1000 nM
10,"C[C@H](NC(=O)c1cc(-c2cc(F)cc(F)c2)cc2ccn(Cc3ccc(C(F)(F)F)cc3)c12)c1ccc(C(=O)O)cc1 [Example 54, (S)-4-(1-(5-(3,5-difluorophenyl)-1-(4-(trifluoromethyl)benzyl)-1H-indole-7-carboxamido)ethyl) benzoic acid]",< 100 nM
11,"N#Cc1cccc(-c2ccc(C(=O)NCc3ccc(C(=O)O)cc3)c3c2ccn3Cc2ccc(C(F)(F)F)cc2)c1 [Example 22, 4-((4-(3-cyanophenyl)-1-(4-(trifluoromethyl)benzyl)-1H-indole-7-carboxamido)methyl)benzoic acid]",100 to 1000 nM
12,"O=C(O)c1ccc(CNC(=O)c2cc(-c3ccc(F)cc3)cc3ccn(Cc4ccc5ccccc5c4)c23)cc1 [Example 160, 4-((5-(4-fluorophenyl)-1-(naphthalen-2-ylmethyl)-1H-indole-7-carboxamido)methyl)benzoic acid]",< 100 nM
13,"O=C(O)c1ccc(CNC(=O)c2cc(-c3cccc(Cl)c3)cc3ccn(Cc4ccc(C(F)(F)F)cc4)c23)cc1 [Example 75, 4-((5-(3-chlorophenyl)-1-(4-(trifluoromethyl)benzyl)-1H-indole-7-carboxamido)methyl)benzoic acid]",< 100 nM
14,"O=C(O)c1ccc(C2(NC(=O)c3cc(-c4ccccc4)cc4cnn(Cc5cccc(C(F)(F)F)c5)c34)CC2)cc1 [Example 140, 4-(1-(5-phenyl-1-(3-(trifluoromethyl)benzyl)-1H-indazole-7-carboxamido)cyclopropyl)benzoic acid]",100 to 1000 nM
15,"O=C(O)c1ccc(CNC(=O)c2cc(-c3ccccc3)cc3ccn(Cc4cccc(Cl)c4)c23)cc1 [Example 105, 4-((1-(3-chlorobenzyl)-5-phenyl-1H-indole-7-carboxamido)methyl)benzoic acid]",< 100 nM
16,"O=C(O)c1ccc(CNC(=O)c2cc(-c3cc(F)cc(F)c3)cc3ccn(Cc4ccc(-c5ccc(F)cc5)cc4)c23)cc1 [Example 210, 4-((5-(3,5-difluorophenyl)-1-((4′-fluoro-[1,1′-biphenyl]-4-yl)methyl)-1H-indole-7-carboxamido)methyl)benzoic acid]",< 100 nM

row,Structure (SMILES),IC50
1,"C[C@H](NC(=O)c1cc(-c2cc(F)cc(F)c2)cc2cnn(Cc3ccc(-c4ccc(F)cc4)cc3)c12)c1ccc(C(=O)O)cc1 [Example 204, (S)-4-(1-(5-(3,5-difluorophenyl)-1-((4′-fluoro-[1,1′-biphenyl]-4-yl)methyl)-1H-indazole-7-carboxamido)ethyl)benzoic acid]",< 100 nM
2,"O=C(NC1CC2(C1)CC(C(=O)O)C2)c1cc(-c2ccccc2)cc2[nH]cc(Sc3ccc(C(F)(F)F)cc3)c12 (racemic) [Example 113, (±) 6-(6-phenyl-3-((4-(trifluoromethyl)phenyl)thio)-1H-indole-4-carboxamido)spiro[3.3]heptane-2-carboxylic acid]",< 100 nM
3,"C[C@H](NC(=O)c1cc(-c2cc(F)cc(F)c2)cc2nnn(Cc3ccc(C(F)(F)F)cc3)c12)c1ccc(C(=O)O)cc1 [Example 181, (S)-4-(1-(5-(3,5-difluorophenyl)-1-(4-(trifluoromethyl)benzyl)-1H-benzo[d][1,2,3]triazole-7-carboxamido)ethyl)benzoic acid]",≥ 1000 nM
4,"O=C(O)c1ccc(CNC(=O)c2cc(-c3cc(F)cc(F)c3)cc3cnn(Cc4cccc(C(F)(F)F)c4)c23)cc1 [Example 139, 4-((5-(3,5-difluorophenyl)-1-(3-(trifluoromethyl)benzyl)-1H-indazole-7-carboxamido)methyl)benzoic acid]",< 100 nM
5,"O=C(O)c1ccc(C2(NC(=O)c3ccc(-c4cc(F)cc(F)c4)c4ccn(Cc5ccc(C(F)(F)F)cc5)c34)CC2)cc1 [Example 39, 4-(1-(4-(3,5-difluorophenyl)-1-(4-(trifluoromethyl)benzyl)-1H-indole-7-carboxamido)cyclopropyl)benzoic acid]",100 to 1000 nM
6,"O=C(O)c1ccc(CNC(=O)c2cc(-c3ccccc3C(F)(F)F)cc3ccn(Cc4ccc(C(F)(F)F)cc4)c23)cc1 [Example 89, 4-((1-(4-(trifluoromethyl)benzyl)-5-(2-(trifluoromethyl)phenyl)-1H-indole-7-carboxamido)methyl)benzoic acid]",100 to 1000 nM
7,"O=C(O)c1ccc(C2(NC(=O)c3ccc(Nc4ccc(F)c(F)c4)c4ccn(Cc5ccc(C(F)(F)F)cc5)c34)CC2)cc1 [Example 63, 4-(1-(4-((3,4-difluorophenyl)amino)-1-(4-(trifluoromethyl)benzyl)-1H-indole-7-carboxamido)cyclopropyl)benzoic acid]",100 to 1000 nM
8,"O=C(O)c1ccc(CNC(=O)c2cc(-c3ccc(F)c(F)c3)cc3ccn(Cc4ccc(-c5ccc(F)cc5)cc4)c23)cc1 [Example 211, 4-((5-(3,4-difluorophenyl)-1-((4′-fluoro-[1,1′-biphenyl]-4-yl)methyl)-1H-indole-7-carboxamido)methyl)benzoic acid]",< 100 nM
9,"NC(=O)c1cccc(-c2cc(C(=O)NCc3ccc(C(=O)O)cc3)c3c(ccn3Cc3ccc(C(F)(F)F)cc3)c2)c1 [Example 82, 4-((5-(3-carbamoylphenyl)-1-(4-(trifluoromethyl)benzyl)-1H-indole-7-carboxamido)methyl)benzoic acid]",< 100 nM
10,"O=C(NC1CC2(C1)CC(C(=O)O)C2)c1cc(Br)cc2[nH]cc(Sc3ccc(C(F)(F)F)cc3)c12 (racemic) [Example 112, (+) 6-(6-bromo-3-((4-(trifluoromethyl)phenyl)thio)-1H-indole-4-carboxamido)spiro[3.3]heptane-2-carboxylic acid]",100 to 1000 nM
11,"O=C(O)c1ccc(CNC(=O)c2cc(-c3ccc(F)cc3)cc3cnn(Cc4ccc(-c5ccc(F)cc5)cc4)c23)cc1 [Example 185, 4-((1-((4′-fluoro-[1,1′-biphenyl]-4-yl)methyl)-5-(4-fluorophenyl)-1H-indazole-7-carboxamido)methyl)benzoic acid]",< 100 nM
12,"O=C(O)c1ccc(C2(NC(=O)c3cc(-c4ccc(F)c(F)c4)cc4ccn(Cc5ccc(C(F)(F)F)cc5)c34)CC2)cc1 [Example 18, 4-(1-(5-(3,4-difluorophenyl)-1-(4-(trifluoromethyl)benzyl)-1H-indole-7-carboxamido)cyclopropyl)benzoic acid]",100 to 1000 nM
13,"C[C@H](NC(=O)c1cc(-c2ccccc2)cc2cnn(Cc3cccc(Cl)c3)c12)c1ccc(C(=O)O)cc1 [Example 170, (S)-4-(1-(1-(3-chlorobenzyl)-5-phenyl-1H-indazole-7-carboxamido)ethyl)benzoic acid]",< 100 nM
14,"O=C(O)c1ccc(CNC(=O)c2cc(-c3cc(Cl)cc(Cl)c3)cc3ccn(Cc4ccc(C(F)(F)F)cc4)c23)cc1 [Example 88, 4-((5-(3,5-dichlorophenyl)-1-(4-(trifluoromethyl)benzyl)-1H-indole-7-carboxamido)methyl)benzoic acid]",100 to 1000 nM
15,"C[C@H](NC(=O)c1cc(-c2ccc(F)cc2)cc2cnn(Cc3ccc(-c4ccccc4)cc3)c12)c1ccc(C(=O)O)cc1 [Example 199, (S)-4-(1-(1-([1,1′-biphenyl]-4-ylmethyl)-5-(4-fluorophenyl)-1H-indazole-7-carboxamido)ethyl)benzoic acid]",< 100 nM
